The text below walks through data of paper PMC3510080, “Identification of Compounds with Anti-Proliferative Activity against Trypanosoma brucei brucei Strain 427 by a Whole Cell Viability Based HTS Campaign” (PLoS Neglected Tropical Diseases, 2012).

Structures are written as SMILES. In brackets after ≈: the same amount, converted by molar mass.

The first experiment deals with T.b. brucei bloodstream form lister 427. Description: T.b. brucei Alamar Blue viability estimation assay (384-well HTS, retest and rescreen). Type of experiment: cell-based, Trypanosoma brucei brucei. To be noted: HEK293 IC50 / T.b. brucei IC50; > if less than 50% activity at 75.8 µM in HEK293. Here is the method: T.b. brucei lister 427 cells were maintained in log phase growth in 25 cm^2 tissue culture flasks (Corning, NY, USA) by sub-culturing at either 24 or 48 hour intervals. Cells were grown in HMI-9 medium, supplemented with 10% fetal calf serum (FCS) and 100 IU/ml penicillin/streptomycin (Invitrogen, Carlsbad, California, USA) with incubation at 5% CO2 at 37°C in humidified conditions. HEK293 cells were maintained in high glucose DMEM with L-glutamine, supplemented with 1× non-essential amino acids (NEAA; Invitrogen, USA) and 1 mM sodium pyruvate. Growth conditions were in 5% CO2 at 37°C, under humidified conditions.
All reagent and cell additions were made with a Multidrop liquid handler (Thermo Scientific, Newington, NH, USA) under sterile conditions. Fifty-five microliters of 2000 cells/mL of T.b. brucei in HMI-9 medium were added to a black, clear-bottomed 384-well lidded plate (BD Biosciences, Franklin Lanes, NJ, USA). Cells were incubated for 24 hours at 37°C in an atmosphere of 5% CO2 before addition of 5 µl of compounds/DMSO for control wells. Compounds suspended in 100% DMSO or 100% DMSO as controls were pre-diluted 1∶21 in high glucose DMEM without FCS by using a Minitrack robotic liquid handler (PerkinElmer, Waltham, MA, USA). Five microliters of diluted sample was added to the plate to give a final DMSO concentration of 0.417% in the assay. Cells were incubated for an additional 48 hours at 37°C. Ten microliters of 70% Alamar Blue (Biosource, Bethesda, MD, USA) was added to each well (diluted in HMI-9 medium supplemented with 10% FCS) to a final concentration of 10% in the assay. The plate was incubated for two hours under the same conditions, then incubated for 22 hours in the dark at room temperature. Wells were read at 535 nm (excitation) and 590 nm (emission) wavelengths on a Victor II Wallac plate reader (PerkinElmer, USA). Specific dilutions are explained further in the primary and retest assay methodology. Reference drugs used in the assay were pentamidine (Sigma-Aldrich, St Louis, MO, USA), diminazene aceturate (Sigma-Aldrich, USA) and puromycin (Calbiochem, San Deigo, CA, USA). Pentamidine is used to treat patients with HAT and diminazene is a veterinary drug used against T.b. brucei to combat infections in cattle.
Primary screening of the library, consisting of 87,296 compounds in two hundred and forty eight 384-well plates, was undertaken in single point against T.b. brucei. Stock solutions consisted of test compound at a concentration of 5 mM in 100% DMSO. One µl of each compound stock solution was diluted by the addition of 40 µl of dilution medium (high glucose DMEM without FCS) by a multidrop liquid handler (Thermo Scientific, USA). A 5 µl sample of this diluted solution was then added to the trypanosome assay plate. The final concentration of test compound in the assay was […] and that of DMSO was 0.42% v/v. Compounds were screened over a total of 11 days, at an average of 80 plates per day, taking into consideration that the assay incubation was 3 days total. Test compounds were added to plates in batches of 20 at two hour intervals, to maintain the timing of additions and reads.
Compound activity was calculated as the percentage inhibition in relation to positive and negative controls. […] These in-plate negative controls were used in an effort to normalise compound activity in relation to any plate to plate variation in the assay signal. A whole 384-well control plate was included in each day's screening, one per 20 compound plates containing half a plate of 2 µM pentamidine for the positive assay control, and half a plate of 0.42% v/v DMSO as a negative control. The positive assay control was used to calculate compound activity for batches of 20 compound plates. As well providing the positive control data, these whole plate controls were used for the calculation of the Z' to measure the reproducibility of the assay.
As to `CCS(=O)(=O)N1CCCc2ccc(NS(=O)(=O)c3ccccc3F)cc21` [Compound 5], the “Selectivity Index T.B” value was above 35.9.
Same read-out and setting: the value for `CCOc1ccc(OCc2ccc(C(=O)N3CCCC(C)C3)cc2)cc1` (stereo not shown) [Compound 3] was above 67.1; that for `CCC(C)NC(=O)c1nc(-c2ccccc2)cnc1N` (stereo not shown) [Compound 6] was above 65.3.

The same experiment, now with this note: Trypanosoma brucei, Alamar Blue-based HTS assay format, run with time to kill study; read-out: Activity (IC50 value) AB assay.
Turning to `O=C(Nc1ccc(Cl)c(-c2nc3ncccc3o2)c1)c1ccco1` [Compound 7], the IC50 is 198 ± 1.28 nM.

The same experiment, now with this note: Trypanosoma brucei, re-synthesised/re-purchased compounds; three experiments, two replicates each; read-out: Compound activity T.B (IC50).
With `O=C(NCCc1n[nH]c(-c2ccc(F)cc2)n1)c1cccc(F)c1` [Compound 2], the IC50 is 4000 ± 55.5 nM.
Same read-out and setting: the value for `CCOc1ccc(OCc2ccc(C(=O)N3CCCC(C)C3)cc2)cc1` (stereo not shown) [Compound 3] was 1100 nM; that for `CCC(C)NC(=O)c1nc(-c2ccccc2)cnc1N` (stereo not shown) [Compound 6] was 1200 nM.

The experiment is the same for the next values; noted with them: Trypanosoma brucei, read-out: Activity (IC50 value) AB assay, Alamar Blue-based HTS assay format, run with time to kill study.
Regarding `O=C(NCCc1n[nH]c(-c2ccc(F)cc2)n1)c1cccc(F)c1` [Compound 2], the IC50 is 4710 ± 272 nM.
On the same count and under the same terms, the value for `CCC(C)NC(=O)c1nc(-c2ccccc2)cnc1N` (stereo not shown) [Compound 6] was 160 ± 40.3 nM.

The same experiment, now with this note: Trypanosoma brucei, read-out: Compound activity T.B (IC50), re-synthesised/re-purchased compounds; three experiments, two replicates each.
For `O=C(Nc1ccc(Cl)c(-c2nc3ncccc3o2)c1)c1ccco1` [Compound 7], the IC50 is 220 nM.
Still for that read-out and setting: the value for `CCS(=O)(=O)N1CCCc2ccc(NS(=O)(=O)c3ccccc3F)cc21` [Compound 5] was 2100 nM.

The experiment is the same for the next values; noted with them: Trypanosoma brucei, read-out: Retest IC50 T.b.brucei, retest campaign from stock solutions, duplicate.
On to `O=C(Nc1ccc(Cl)c(-c2nc3ncccc3o2)c1)c1ccco1` [Compound 7], for which the IC50 is 169 nM.

Staying with this experiment, now noted: Trypanosoma brucei, retest campaign from stock solutions, duplicate; read-out: Retest IC50 T.b.brucei.
On to `O=C(NCCc1n[nH]c(-c2ccc(F)cc2)n1)c1cccc(F)c1` [Compound 2], for which the IC50 was 1930 nM.
For `CCOc1ccc(OCc2ccc(C(=O)N3CCCC(C)C3)cc2)cc1` (stereo not shown) [Compound 3], the IC50 was 2560 nM.

Staying with this experiment, now noted: re-synthesised/re-purchased compounds; three experiments, two replicates each; read-out: Compound activity T.B (IC50).
For `O=C(Nc1ccc(Cl)c(-c2nc3ncccc3o2)c1)c1ccco1` [Compound 7], the IC50 was 218 ± 7.14 nM.
Same read-out and setting: in the case of `CCS(=O)(=O)N1CCCc2ccc(NS(=O)(=O)c3ccccc3F)cc21` [Compound 5] it was 2110 ± 130 nM.
On to `CCOc1ccc(OCc2ccc(C(=O)N3CCCC(C)C3)cc2)cc1` (stereo not shown) [Compound 3], for which the IC50 is 1130 ± 347 nM.
Same read-out and setting: the value for `CCC(C)NC(=O)c1nc(-c2ccccc2)cnc1N` (stereo not shown) [Compound 6] was 1160 ± 304 nM.

The experiment is the same for the next values; noted with them: retest campaign, HEK293 IC50 / T.b. brucei IC50.
Turning to `O=C(NCCc1n[nH]c(-c2ccc(F)cc2)n1)c1cccc(F)c1` [Compound 2], the “Estimated Selectivity Index” value is reported as 21.6.
Turning to `CCOc1ccc(OCc2ccc(C(=O)N3CCCC(C)C3)cc2)cc1` (stereo not shown) [Compound 3], the “Estimated Selectivity Index” value is 16.3.

The same experiment, now with this note: single point, 10.2 µM, inhibition relative to controls.
`O=C(Nc1ccc(Cl)c(-c2nc3ncccc3o2)c1)c1ccco1` [Compound 7]: the “Primary Screening Activity 10.2µM (%)” value was 100%.
Same read-out and setting: the value for `O=C(NCCc1n[nH]c(-c2ccc(F)cc2)n1)c1cccc(F)c1` [Compound 2] was 99.5%.
The same measure, in the same setting: in the case of `CCOc1ccc(OCc2ccc(C(=O)N3CCCC(C)C3)cc2)cc1` (stereo not shown) [Compound 3] it was 99%.

The next experiment has as its system P. falciparum K1 strain. Description: P. falciparum 3H-hypoxanthine incorporation assay; SI versus L6 cells. Type of experiment: cell-based, Plasmodium falciparum. Particulars: Plasmodium falciparum, K1, L6; read-out: Compound activity P.F (IC50). On the procedure:
L6 rat skeletal myoblasts, [29] were purchased from the American Type Culture Collection (ATCC, Rockville, MD, USA; ATCC number CRL 1458). This cell line was used for cytotoxicity testing to calculate an SI against T.b. rhodesiense and screened alongside the T.b. rhodesiense, P. falciparum, T. cruzi and L. donovani assays. L6 were also the host cells for the T. cruzi assay. Assays were performed in 96-well microtiter plates, each well containing 100 µl of RPMI 1640 medium supplemented with 1% L-glutamine (200 mM), 10% FCS, and 4000 L6 cells. Serial drug dilutions of eleven 3-fold dilution steps covering a range from 100 to 0.002 µg/ml were prepared. After 70 hours of incubation the plates were inspected under an inverted microscope to assure growth of the controls and sterile conditions. Ten µl of resazurin solution (resazurin, 12.5 mg in 100 ml double-distilled water) was then added to each well and the plates incubated for another 2 hours. Then the plates were read with a Spectramax Gemini XS microplate fluorometer (Molecular Devices Cooperation, Sunnyvale, CA, USA) using an excitation wavelength of 536 nm and an emission wavelength of 588 nm. Data was analysed using the microplate reader software Softmax Pro (Molecular Devices, USA). Podophyllotoxin was used as a positive control in the assay.
Compounds dissolved in DMSO at 10 mg/ml were added to parasite cultures incubated in RPMI 1640 medium without hypoxanthine, supplemented with HEPES (5.94 g/l), NaHCO3 (2.1 g/l), neomycin (100 U/ml), Albumax (5 g/l) and washed human A^+ red blood cells at 2.5% haematocrit (0.3% parasitaemia). Serial drug dilutions of eleven 3-fold dilution steps covering a range from 100 to 0.002 µg/ml were prepared. The 96-well plates were incubated in a humidified atmosphere at 37°C; 4% CO2, 3% O2, 93% N2. After 48 hours, 50 µl of ^3H-hypoxanthine ( = 0.5 µCi) was added to each well of the plate. The plates were incubated for a further 24 hours under the same conditions. The plates were then harvested with a Betaplate cell harvester (Wallac, Zurich, Switzerland), and the red blood cells transferred onto a glass fibre filter then washed with distilled water. The dried filters were inserted into a plastic foil with 10 ml of scintillation fluid, and counted in a Betaplate liquid scintillation counter (Wallac, Zurich, Switzerland). IC50 values were calculated from sigmoidal inhibition curves using Microsoft Excel.
In the case of `O=C(Nc1ccc(Cl)c(-c2nc3ncccc3o2)c1)c1ccco1` [Compound 7], the IC50 amounted to 7760 ± 3220 nM.
With `O=C(NCCc1n[nH]c(-c2ccc(F)cc2)n1)c1cccc(F)c1` [Compound 2], the IC50 came to 23900 ± 8480 nM.
Still for that read-out and setting: in the case of `CCS(=O)(=O)N1CCCc2ccc(NS(=O)(=O)c3ccccc3F)cc21` [Compound 5] it was 12600 ± 5870 nM; in that of `CCOc1ccc(OCc2ccc(C(=O)N3CCCC(C)C3)cc2)cc1` (stereo not shown) [Compound 3], 14300 ± 6640 nM.
Still for that read-out and setting: the value for `CCC(C)NC(=O)c1nc(-c2ccccc2)cnc1N` (stereo not shown) [Compound 6] was 11300 ± 4790 nM.

Still in this experiment, the particulars now being: relative to L6 cells.
With `O=C(NCCc1n[nH]c(-c2ccc(F)cc2)n1)c1cccc(F)c1` [Compound 2], the “Selectivity Index P.F” value was 5.00.
Consider `CCS(=O)(=O)N1CCCc2ccc(NS(=O)(=O)c3ccccc3F)cc21` [Compound 5], for which the “Selectivity Index P.F” value stood at 1.72.
On to `CCOc1ccc(OCc2ccc(C(=O)N3CCCC(C)C3)cc2)cc1` (stereo not shown) [Compound 3], for which the “Selectivity Index P.F” value is on record as 3.48.
Still for that read-out and setting: in the case of `CCC(C)NC(=O)c1nc(-c2ccccc2)cnc1N` (stereo not shown) [Compound 6] it was 1.58.

A further experiment deals with T.b. brucei. Briefly: Determination of the cidal action of compounds (MIC and parasite counts). The class given is cell-based, Trypanosoma brucei brucei. Particulars: 24 hours. An excerpt:
The MIC was extrapolated as the minimum concentration at which there was a plateau of activity in the assay (>95% activity).
Take `O=C(Nc1ccc(Cl)c(-c2nc3ncccc3o2)c1)c1ccco1` [Compound 7]: the “population remaining at the MIC, 24 hours” value is recorded as 0.41%.

The same experiment, now with this note: 48 hours.
For the compound `O=C(Nc1ccc(Cl)c(-c2nc3ncccc3o2)c1)c1ccco1` [Compound 7], the “population remaining at the MIC, 48 hours” value was 0.06%.

Staying with this experiment, now noted: Trypanosoma brucei; minimum concentration with plateau of activity (>95%) in Alamar Blue concentration response curve; read-out: minimum inhibitory concentration (MIC).
As for `O=C(Nc1ccc(Cl)c(-c2nc3ncccc3o2)c1)c1ccco1` [Compound 7], the MIC is 0.99 µM (≈ 0.336 µg/mL).
Consider `O=C(NCCc1n[nH]c(-c2ccc(F)cc2)n1)c1cccc(F)c1` [Compound 2], for which the MIC was 19.8 µM (≈ 6.5 µg/mL).
Same read-out and setting: in the case of `CCC(C)NC(=O)c1nc(-c2ccccc2)cnc1N` (stereo not shown) [Compound 6] it was 9.92 µM (≈ 2.68 µg/mL).

Staying with this experiment, now noted: parasites cleared by 72 hours at MIC.
As to `O=C(Nc1ccc(Cl)c(-c2nc3ncccc3o2)c1)c1ccco1` [Compound 7], the “action cidal or static at the MIC” value was “cidal”.
In the case of `O=C(NCCc1n[nH]c(-c2ccc(F)cc2)n1)c1cccc(F)c1` [Compound 2], the “action cidal or static at the MIC” value is listed as “cidal”.
The same measure, in the same setting: the value for `CCC(C)NC(=O)c1nc(-c2ccccc2)cnc1N` (stereo not shown) [Compound 6] was “cidal”.
